Laboratory results: patent publication US6875761B2 (Eisai Co., Ltd., priority 1997, dated 2005)
pKi: −log10 of the molar value. Structures can show the parent of a compound that is named as a salt.

Assays:
serotonin 1A receptor = target: T1, serotonin 1A receptor (Rattus norvegicus, UniProt P19327); test: Binding test on [3H] 8-hydroxy-dipropylaminotetralin, hippocampus receptor fraction; set-up: species or system SD rats; conditions: rat hippocampus receptor fraction, 0.5 nM [3H] 8-OH-DPAT, room temperature 30 min; read-out: 5HT1
T1 construct: To the receptor fraction of the hippocampus were added a test compound and 0.5 nM of [^3H]; 8-hydroxy-dipropylaminotetralin; from tissue; host or cells: rat hippocampus membrane fraction
T1 sequence (P19327 1-422): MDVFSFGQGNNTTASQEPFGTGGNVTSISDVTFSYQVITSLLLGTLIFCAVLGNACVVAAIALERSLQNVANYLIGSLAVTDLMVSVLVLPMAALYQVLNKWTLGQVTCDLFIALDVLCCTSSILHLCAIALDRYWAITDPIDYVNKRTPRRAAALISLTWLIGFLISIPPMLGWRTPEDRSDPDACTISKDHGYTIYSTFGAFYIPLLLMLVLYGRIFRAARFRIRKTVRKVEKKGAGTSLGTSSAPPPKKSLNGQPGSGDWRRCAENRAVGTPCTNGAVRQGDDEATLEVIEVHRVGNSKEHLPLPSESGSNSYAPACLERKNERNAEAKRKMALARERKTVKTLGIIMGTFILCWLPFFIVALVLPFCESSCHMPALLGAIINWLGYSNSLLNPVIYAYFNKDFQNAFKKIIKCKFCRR

serotonin 2 receptor = target: T2, serotonin 2 receptor (Rattus norvegicus, UniProt P14842); test: Binding test on [3H] ketanserin, cerebral cortex receptor fraction; set-up: species or system SD rats; conditions: 0.3 nM [3H] ketanserin, 37° C. 15 min, read-out: 5HT2
T2 construct: To the receptor fraction of the cerebral cortex were added a test compound and 0.3 nM of [^3H] ketanserin; from tissue; host or cells: rat cerebral cortex membrane fraction
T2 sequence (P14842 whole entry): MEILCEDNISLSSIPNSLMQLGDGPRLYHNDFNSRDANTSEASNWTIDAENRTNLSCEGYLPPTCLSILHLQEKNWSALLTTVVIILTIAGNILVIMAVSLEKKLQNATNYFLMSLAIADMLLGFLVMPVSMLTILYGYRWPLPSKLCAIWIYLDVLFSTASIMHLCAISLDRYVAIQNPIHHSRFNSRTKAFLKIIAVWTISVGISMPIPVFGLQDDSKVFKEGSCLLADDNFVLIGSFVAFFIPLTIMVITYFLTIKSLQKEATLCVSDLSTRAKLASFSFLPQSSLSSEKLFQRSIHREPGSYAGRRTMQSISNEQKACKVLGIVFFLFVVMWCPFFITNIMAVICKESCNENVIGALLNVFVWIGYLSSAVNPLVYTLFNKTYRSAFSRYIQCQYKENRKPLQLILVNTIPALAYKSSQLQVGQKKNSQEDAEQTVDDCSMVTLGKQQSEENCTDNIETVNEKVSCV

**Q.** `CCN1CCN(c2nc(-c3cnc(CCCOC)s3)cc3ccccc23)CC1` [Example 172, 1-(1-ethylpiperazin-4-yl)-3-[2-(3-methoxypropyl)thiazol-5-yl]isoquinoline oxalate] was tested. Which pKi (serotonin 1A receptor) did it give?
**A.** 8.33

**Q.** And the pKi (serotonin 2 receptor)?
**A.** 7.44

**Q.** `CCCC(=O)Nc1ncc(-c2cc3ccccc3c(N3CCN(CC)CC3)n2)cn1` [Example 174, 3-(2-Propylcarbonylaminopyrimidin-5-Yl)-1-(4-Ethylpiperazin-1-Yl)Isoquinoline Hydrochlroide] was tested. Which pKi (serotonin 1A receptor) did it give?
**A.** 7.54

**Q.** And the pKi (serotonin 2 receptor)?
**A.** 8.14

**Q.** What does the source list for `CCN1CCN(c2nc(-c3ccc(C4=CCOCC4)s3)cc3ccccc23)CC1` [Example 176, 3-[2-(5,6-Dihydro-2H-Pyran-4-Yl)Thiophen-5-Yl]-1-[4-Ethylpiperazin-1-Yl)Isoquinoline Hydrochloride]?
**A.** pKi (serotonin 1A receptor): 6.81; pKi (serotonin 2 receptor): 7.91

**Q.** Which results are given for `CCN1CCN(c2nc(C#Cc3ccccc3)cc3ccccc23)CC1` [Example 177, 1-(1-Ethylpiperazin-4-Yl)-3-(Phenylethynyl)Isoquinoline Dihydrochloride]?
**A.** pKi (serotonin 1A receptor): 7.35; pKi (serotonin 2 receptor): 9.30

**Q.** With `CCN1CCN(c2nc(C#Cc3ccc(OC)cc3)cc3ccccc23)CC1` [Example 178, 1-(1-Ethylpiperazin-4-Yl)-3-(4-Methoxyphenyl)Ethynylisoquinoline Dihydrochloride] as the molecule, how does the pKi (serotonin 1A receptor) read?
**A.** 7.25

**Q.** What about the pKi (serotonin 2 receptor) of the same molecule?
**A.** 9.70

**Q.** How did the pKi (serotonin 1A receptor) turn out when `CCN1CCN(c2nc(C#CCCc3ccccc3)cc3ccccc23)CC1` [Example 182, 1-(1-Ethylpiperazin-4-Yl)-3-[4-Phenyl-1-Butynyl)Isoquinoline Dihydrochloride] was run?
**A.** 8.00

**Q.** And the pKi (serotonin 2 receptor)?
**A.** 7.80

**Q.** With `CCN1CCN(c2nc(C#CC(=O)c3ccccc3)cc3ccccc23)CC1` [Example 184, 1-(1-Ethylpiperazin-4-Yl)-3-Benzoylethynylisoquinoline Oxalate] as the molecule, how does the pKi (serotonin 1A receptor) read?
**A.** 7.51

**Q.** What about the pKi (serotonin 2 receptor) of the same molecule?
**A.** 6.91

**Q.** How did the pKi (serotonin 1A receptor) turn out when `CCN1CCN(c2nc(C#Cc3ccc(OC)cc3OC)cc3ccccc23)CC1` [Example 185, 1-(1-Ethylpiperazin-4-Yl)-3-(2,4-Dimethoxyphenylethynyl)Isoquinoline Dihydrochloride] was run?
**A.** 7.67

**Q.** What about the pKi (serotonin 2 receptor) of the same molecule?
**A.** 8.70

**Q.** What does the source list for `CCN1CCN(c2nc(C#Cc3cncc(CCCOC)c3)cc3ccccc23)CC1` [Example 186, 1-(1-Ethylpiperazin-4-Yl)-3-[3-(3-Methoxypropyl)-5-Pyridyl]Ethynylisoquinoline]?
**A.** pKi (serotonin 1A receptor): 8.55; pKi (serotonin 2 receptor): 8.35

**Q.** `CCN1CCN(c2nc(C#Cc3ncccc3OCCO)cc3ccccc23)CC1` [Example 188, 1-(1-Ethylpiperazin-4-Yl)-3-[3-(2-Hydroxyethoxy)-2-Pyridyl]Ethynylisoquinoline] was tested. Which pKi (serotonin 1A receptor) did it give?
**A.** 8.35

**Q.** What about the pKi (serotonin 2 receptor) of the same molecule?
**A.** 6.97

**Q.** How did the pKi (serotonin 1A receptor) turn out when `CCN1CCN(c2nc(/C=C/c3ccccc3)cc3ccccc23)CC1` [Example 189, 1-(1-Ethylpiperazin-4-Yl)-3-(Trans-2-Phenylethenyl)Isoquinoline Dihydrochloride] was run?
**A.** 7.43

**Q.** What about the pKi (serotonin 2 receptor) of the same molecule?
**A.** 9.36

**Q.** `CCN1CCN(c2nc(/C=C/c3ccc(OC)cc3)cc3ccccc23)CC1` [Example 190, 1-(1-Ethylpiperazin-4-Yl)-3-[Trans-2-(4-Methoxyphenyl)Ethenyl]Isoquinoline Dihydrochloride] was tested. Which pKi (serotonin 1A receptor) did it give?
**A.** 7.46

**Q.** What about the pKi (serotonin 2 receptor) of the same molecule?
**A.** 8.41

**Q.** With `CCN1CCN(c2nc(/C=C\c3ccc(OC)cc3)cc3ccccc23)CC1` [Example 191, 1-(1-Ethylpiperazin-4-Yl)-3-[Cis-2-(4-Methoxyphenyl)Ethenyl]Isoquinoline Oxalate] as the molecule, how does the pKi (serotonin 1A receptor) read?
**A.** 7.89

**Q.** What about the pKi (serotonin 2 receptor) of the same molecule?
**A.** 9.03

**Q.** `CCN1CCN(c2nc(C(C)=Cc3ccccc3)cc3ccccc23)CC1` [Example 192, 1-(1-Ethylpiperazin-4-Yl)-3-(Cis-1-Methyl-2-Phenylethenyl) Isoquinoline Oxalate] was tested. Which pKi (serotonin 1A receptor) did it give?
**A.** 7.18

**Q.** And the pKi (serotonin 2 receptor)?
**A.** 8.11

**Q.** Which results are given for `CCN1CCN(c2nc(/C=C/c3ccccc3OCCO)cc3ccccc23)CC1` [Example 194, 1-(1-Ethylpiperazin-4-Yl)-3-[trans-2-(2-Hydroxyethoxyphenyl)Ethenyl]Isoquinoline Oxalate]?
**A.** pKi (serotonin 1A receptor): 7.95; pKi (serotonin 2 receptor): 7.47

**Q.** Which results are given for `CCN1CCN(c2nc(/C=C/c3ccccc3OC)cc3ccccc23)CC1` [Example 195, 1-(1-Ethylpiperazin-4-Yl)-3-[Trans-2-(2-Methoxyphenyl)Ethenyl]Isoquinoline Oxalate]?
**A.** pKi (serotonin 1A receptor): 7.64; pKi (serotonin 2 receptor): 7.43

**Q.** Which results are given for `CCN1CCN(c2nc(/C=C(\C)c3ccccc3)cc3ccccc23)CC1` [Example 196, 1-(1-Ethylpiperazin-4-Yl)-3-(Trans-2-Methyl-2-Phenylethen-1-Yl)Isoquinoline Oxalate]?
**A.** pKi (serotonin 1A receptor): 7.18; pKi (serotonin 2 receptor): 8.19

**Q.** Which results are given for `CCN1CCN(c2nc(/C=C/c3ccccc3F)cc3ccccc23)CC1` [Example 197, 1-(1-Ethylpiperazin-4-Yl)-3-[Trans-2-(2-Fluorophenyl)Ethenyl]isoquinoline Oxalate]?
**A.** pKi (serotonin 1A receptor): 7.15; pKi (serotonin 2 receptor): 8.37

**Q.** How did the pKi (serotonin 1A receptor) turn out when `CCN1CCN(c2nc(/C=C/c3ccc(OCCO)cc3)cc3ccccc23)CC1` [Example 198, 1-(1-Ethylpiperazin-4-Yl)-3-[(E)-4-(2-Hydroxyethoxy)Styryl]Isoquinoline Oxalate] was run?
**A.** 7.34

**Q.** And the pKi (serotonin 2 receptor)?
**A.** 8.04

**Q.** With `CCN1CCN(c2nc(/C=C/c3cccc(OCCO)c3)cc3ccccc23)CC1` [Example 199, 1-(1-Ethylpiperazin-4-Yl)-3-(Trans-2-(3-(2-Hydroxyethoxy)Phenyl]Ethenyl]isoquinoline Oxalate] as the molecule, how does the pKi (serotonin 1A receptor) read?
**A.** 8.49

**Q.** What about the pKi (serotonin 2 receptor) of the same molecule?
**A.** 8.42

**Q.** `CCN1CCN(c2nc(/C=C/c3ccc(N4CCOCC4)nc3)cc3ccccc23)CC1` [Example 200, 3-[(E)-2-[2-(4-Morpholinyl)Pyridin-5-Yl]Ethenyl]-1-(4-Ethylpiperazin-1-Yl)Isoquinoline Hydrochloride] was tested. Which pKi (serotonin 1A receptor) did it give?
**A.** 7.11

**Q.** What about the pKi (serotonin 2 receptor) of the same molecule?
**A.** 8.13

**Q.** How did the pKi (serotonin 1A receptor) turn out when `CCN1CCN(c2nc(/C=C/c3ccc(S(C)(=O)=O)cc3)cc3ccccc23)CC1` [Example 201, 3-[(E)-2-(4-Methylsulfonylphenyl)Ethenyl]-1-(4-Ethylpiperazin-1-Yl)Isoquinoline Hydrochloride] was run?
**A.** 7.44

**Q.** What about the pKi (serotonin 2 receptor) of the same molecule?
**A.** 8.53

**Q.** `CCN1CCN(c2nc(/C=C/c3ccc(CS(C)(=O)=O)cc3)cc3ccccc23)CC1` [Example 203, 3-[(E)-2-(4-Methylsulfonylmethylphenyl)Ethenyl]-1-(4-Ethylpiperazin-1-Yl)Isoquinoline Oxalate] was tested. Which pKi (serotonin 1A receptor) did it give?
**A.** 8.26

**Q.** What about the pKi (serotonin 2 receptor) of the same molecule?
**A.** 9.28

**Q.** Which results are given for `CCN1CCN(c2nc(/C=C/c3cccc(N4CCOCC4)c3)cc3ccccc23)CC1` [Example 204, 3-{(E)-2-[3-(4-Morpholinyl)Phenyl]Ethenyl}-1-(4-Ethylpiperazin-1-Yl)Isoquinoline Oxalate]?
**A.** pKi (serotonin 1A receptor): 7.59; pKi (serotonin 2 receptor): 7.73

**Q.** `CCN1CCN(c2nc(/C=C/c3ccc(N4CCOCC4)cc3)cc3ccccc23)CC1` [Example 205, 3-{(E)-2-[4-(4-Morpholinyl)Phenyl]Ethenyl}-1-(4-Ethylpiperazin-1-Yl)Isoquinoline Oxalate] was tested. Which pKi (serotonin 1A receptor) did it give?
**A.** 7.48

**Q.** What about the pKi (serotonin 2 receptor) of the same molecule?
**A.** 9.01

**Q.** How did the pKi (serotonin 1A receptor) turn out when `CCN1CCN(c2nc(/C=C(\C)c3ccc(N4CCOCC4)cc3)cc3ccccc23)CC1` [Example 206, 3-{(E)-2-Methyl-2-[4-(4-Morpholinyl)Phenyl]Ethenyl}-1-(4-Ethylpiperazin-1-Yl)Isoquinoline Oxalate] was run?
**A.** 7.11

**Q.** And the pKi (serotonin 2 receptor)?
**A.** 8.59

**Q.** Which results are given for `CCN1CCN(c2nc(/C=C(\C)c3cccc(N4CCOCC4)c3)cc3ccccc23)CC1` [Example 207, 3-{(E)-2-Methyl-2-[3-(4-Morpholinyl)Phenyl]Ethenyl}-1-(4-Ethylpiperazin-1-Yl)Isoquinoline Oxalate]?
**A.** pKi (serotonin 1A receptor): 7.65; pKi (serotonin 2 receptor): 7.75

**Q.** Which results are given for `CCN1CCN(c2nc(/C=C/c3ccccn3)cc3ccccc23)CC1` [Example 209, 1-(1-Ethylpiperazin-4-Yl)-3-[Trans-2-(2-Pyridyl)Ethenyl]Isoquinoline Trihydrochloride]?
**A.** pKi (serotonin 1A receptor): 8.48; pKi (serotonin 2 receptor): 8.63

**Q.** How did the pKi (serotonin 1A receptor) turn out when `CCN1CCN(c2nc(/C=C/c3ccncc3)cc3ccccc23)CC1` [Example 210, 1-(1-Ethylpiperazin-4-Yl)-3-[Trans-2-(4-Pyridyl)Ethenyl]Isoquinoline] was run?
**A.** 8.18

**Q.** What about the pKi (serotonin 2 receptor) of the same molecule?
**A.** 8.40

**Q.** `CCN1CCN(c2nc(/C=C/Cc3ccccc3OC)cc3ccccc23)CC1` [Example 211] was tested. Which pKi (serotonin 1A receptor) did it give?
**A.** 8.29

**Q.** What about the pKi (serotonin 2 receptor) of the same molecule?
**A.** 7.40

**Q.** How did the pKi (serotonin 1A receptor) turn out when `CCN1CCN(c2nc(/C=C/c3ccc(N4CCOCC4)nn3)cc3ccccc23)CC1` [Example 214, 3-{(E)-2-[3-(4-Morpholinyl)Pyridazin-6-Yl]Ethenyl}-1-(4-Ethylpiperazin-1-Yl)Isoquinoline Oxalate] was run?
**A.** 7.81

**Q.** What about the pKi (serotonin 2 receptor) of the same molecule?
**A.** 8.12

**Q.** How did the pKi (serotonin 1A receptor) turn out when `CCN1CCN(c2nc(/C=C/c3cc(N4CCOCC4)ncn3)cc3ccccc23)CC1` [Example 215, 3{(E)-2-[4-(4-morpholinyl)pyrimidin-6-yl]ethenyl}-1-(4-ethylpiperazin-1-yl)isoquinoline oxalate] was run?
**A.** 7.28

**Q.** And the pKi (serotonin 2 receptor)?
**A.** 7.68

**Q.** What does the source list for `CCN1CCN(c2nc(/C=C/c3cncc(N4CCOCC4)n3)cc3ccccc23)CC1` [Example 216, 3-{(E)-2-[2-(4-morpholinyl)pyrazin-6-yl]ethenyl}-1-(4-ethylpiperazin-1-yl)isoquinoline oxalate]?
**A.** pKi (serotonin 1A receptor): 7.78; pKi (serotonin 2 receptor): 7.81

**Q.** How did the pKi (serotonin 1A receptor) turn out when `CCN1CCN(c2nc(CNc3ccc(OC)cc3)cc3ccccc23)CC1` [Example 219, 1-(1-ethylpiperazin-4-yl)-3-(4-methoxyanilinomethyl)isoquinoline oxalate] was run?
**A.** 8.52

**Q.** And the pKi (serotonin 2 receptor)?
**A.** 8.23
